According to patent US20180344855A1, “Stable Anti-inflammatory Solutions for Injection” (Omeros Corporation, priority 2011, published 2018):
Structures can show the parent of a compound that is named as a salt. Where two headings read alike, the source gives them in different places.

How the values were obtained:
COX = details: non-selective COX assay; cited from earlier work
[1] = Procedure: Thus, the final concentration of Na citrate was about 50 mM. Three cGMP registration lots of the formulation, each in three hundred liter volume, were manufactured and stored at temperatures of 5° C., 25° C., 30° C., or 40° C. for long-term stability evaluation. Aliquots were taken from each lot at intervals and analyzed for potency and presence of related substances. In addition, the lots were visually inspected for appearance and the pH was also monitored.
Related substances (RS) were detected by HPLC.

[2] = One-liter scale stability study with or without Na2 EDTA, N2 overlay or sparge (Example 8); format: physicochemical; details: over six months
[3] = Formulation screening: storage stability, related substances by gradient HPLC (Examples 2-5); format: physicochemical; details: in the presence of 0.05% w/v Na2 EDTA versus none; up to thirty days
Procedure: The stability of the active pharmaceutical ingredients was tested in acetate or citrate buffers. […] Chromatographic conditions for the related substances assay were as follows: (a) Detection wave length, UV 215 nm; (b) Column, Zorbax SB-C8, 5 μm, 4.6×250 mm; (c) Column temp, 30±1° C.; (d) Sample temp, Ambient; (e) Flow rate, 1.2 mL/min; (f) Injection volume, 20 μL; (g) Run Time, 30 minutes.
F6 included 50 mM Na acetate buffer, pH 5.5; F7 included 50 mM Na citrate buffer, pH 5.5. […] Citric acid also has the ability to chelate divalent cations and can prevent oxidation, thus acting both as a buffering agent and an antioxidant.
The Stability of the Active Pharmaceutical Ingredients was Tested in Buffers with varying pH values. […] Data not shown. Both formulations included 50 mM Na citrate buffer. F8 pH was 6.5 and F9 pH was 5.5.
The stability of the active, pharmaceutical ingredients in liquid formulation was tested in the presence of N2 overlay and light protection. Two formulations, F10 and F11, were prepared and stored for up to 28 days under the conditions shown in FIG. 4A, i.e., with or without N2 overlay and light protection. […] F10 was prepared under protection from light and N2 overlay post-compounding and pre-filling of formulation into vials, while F11 was not.
The effect of antioxidants on stability of the active pharmaceutical ingredients in liquid formulation was tested. […]

[4] = target: non-human 5-HT1A, 5-HT1B and 5-HT1D receptors; details: range over non-human 5-HT1A; cited from earlier work
[5] = target: human 5-HT1B and 5-HT1D receptors; details: range over human 5-HT1B and 5-HT1D receptors; cited from earlier work
5-HT1B/1D receptor = details: human saphenous vein; read-out: IC50 (functional agonist); cited from earlier work
[6] = target: α1A- and α2A-adrenoceptors; details: range over α1A- and α2A-adrenoceptors; cited from earlier work

In the case of CC(C(=O)O)c1cccc(C(=O)c2ccccc2)c1 (stereo not drawn) [Ketoprofen, ketoprofen], the IC50 (COX) is given as 4 to 8 nM.
In the case of Cc1cc(C(C)(C)C)c(O)c(C)c1CC1=NCCN1 [Oxymetazoline HCl, oxymetazoline HCl], the “total RS %” value ([1]; stored at 30° C. and 40° C.) is reported as “increased significantly”, the “total RS %” value ([1]; two years at 5° C.) is reported as 0.00% and the “total RS %” value ([1]; two years at 25° C.) is reported as “about 0.15%”. For the same compound, the “related substances of the named API” value [2] was “less than 1%”.
In the case of CN(C)CCC=C1c2ccccc2CCc2ccccc21 [amitriptyline HCl], the chemical stability [3] is reported as “improved”, the “stability in the tested formulation” value [1] is reported as “stable” and the RS presence ([1]; 4° C.) is reported as “present sporadically”. For the same compound, the “percentage of RS over time” value ([1]; 25° C. and 30° C.) was “increased over the first three months, and then was stable for up to two years”, the “percentage of RS over time” value ([1]; 40° C.) was “increased during the first month and then stabilized” and the “related substances of the named API” value [2] was “less than 5%”.
For Cc1cc(C(C)(C)C)c(O)c(C)c1CC1=NCCN1 [oxymetazoline], the IC50 [4] is given as 3 to 26 nM, the Ki [5] is given as 0.3 to 0.4 nM and the IC50 (5-HT1B/1D receptor) is given as 30 nM. The Ki [6] was 3 to 6 nM.
